Source: the NIST ThermoML archive (doi:10.1016/j.jct.2013.05.030)
± gives the expanded uncertainty stated by the source.

Test: activity coefficient (dimensionless); of the first substance listed, at infinite dilution; xn = mol fraction of the nth substance listed
Details: 333.15 K; 101 kPa; Liquid; Chromatography; x1 = 0

Structure (SMILES) | activity coefficient
C1CCCCC1 [cyclohexane] + CCCCCCCCCCCCCC[P+](CCCCCC)(CCCCCC)CCCCCC.O=S(=O)([N-]S(=O)(=O)C(F)(F)F)C(F)(F)F | 0.797 ± 0.059

Same assay, conditions: 353.15 K; 101 kPa; Liquid; Chromatography; x1 = 0

Structure (SMILES) | activity coefficient
C#CCCCCCCC [1-nonyne] + CCCCCCCCCCCCCC[P+](CCCCCC)(CCCCCC)CCCCCC.O=S(=O)([N-]S(=O)(=O)C(F)(F)F)C(F)(F)F | 0.956 ± 0.069
C=CCCCC [hex-1-ene] + CCCCCCCCCCCCCC[P+](CCCCCC)(CCCCCC)CCCCCC.O=S(=O)([N-]S(=O)(=O)C(F)(F)F)C(F)(F)F | 0.93 ± 0.068
CCCCCCCC [octane] + CCCCCCCCCCCCCC[P+](CCCCCC)(CCCCCC)CCCCCC.O=S(=O)([N-]S(=O)(=O)C(F)(F)F)C(F)(F)F | 1.46 ± 0.11
C1CCCCCC1 [cycloheptane] + CCCCCCCCCCCCCC[P+](CCCCCC)(CCCCCC)CCCCCC.O=S(=O)([N-]S(=O)(=O)C(F)(F)F)C(F)(F)F | 0.891 ± 0.065
CCCO [propan-1-ol] + CCCCCCCCCCCCCC[P+](CCCCCC)(CCCCCC)CCCCCC.O=S(=O)([N-]S(=O)(=O)C(F)(F)F)C(F)(F)F | 1.07 ± 0.078
Cc1ccccc1 [toluene] + CCCCCCCCCCCCCC[P+](CCCCCC)(CCCCCC)CCCCCC.O=S(=O)([N-]S(=O)(=O)C(F)(F)F)C(F)(F)F | 0.486 ± 0.041
CO [methanol] + CCCCCCCCCCCCCC[P+](CCCCCC)(CCCCCC)CCCCCC.O=S(=O)([N-]S(=O)(=O)C(F)(F)F)C(F)(F)F | 0.922 ± 0.067
CCCCCC [hexane] + CCCCCCCCCCCCCC[P+](CCCCCC)(CCCCCC)CCCCCC.O=S(=O)([N-]S(=O)(=O)C(F)(F)F)C(F)(F)F | 1.12 ± 0.082
C#CCCCC [1-hexyne] + CCCCCCCCCCCCCC[P+](CCCCCC)(CCCCCC)CCCCCC.O=S(=O)([N-]S(=O)(=O)C(F)(F)F)C(F)(F)F | 0.72 ± 0.054
C1CCCCCCC1 [cyclooctane] + CCCCCCCCCCCCCC[P+](CCCCCC)(CCCCCC)CCCCCC.O=S(=O)([N-]S(=O)(=O)C(F)(F)F)C(F)(F)F | 1.07 ± 0.078
CCC(C)=O [butanone] + CCCCCCCCCCCCCC[P+](CCCCCC)(CCCCCC)CCCCCC.O=S(=O)([N-]S(=O)(=O)C(F)(F)F)C(F)(F)F | 0.324 ± 0.034
C=CCCCCC [1-heptene] + CCCCCCCCCCCCCC[P+](CCCCCC)(CCCCCC)CCCCCC.O=S(=O)([N-]S(=O)(=O)C(F)(F)F)C(F)(F)F | 1.1 ± 0.08
CCCCCCCCC [nonane] + CCCCCCCCCCCCCC[P+](CCCCCC)(CCCCCC)CCCCCC.O=S(=O)([N-]S(=O)(=O)C(F)(F)F)C(F)(F)F | 1.77 ± 0.14
CCCCC [pentane] + CCCCCCCCCCCCCC[P+](CCCCCC)(CCCCCC)CCCCCC.O=S(=O)([N-]S(=O)(=O)C(F)(F)F)C(F)(F)F | 0.99 ± 0.072
c1ccccc1 [benzene] + CCCCCCCCCCCCCC[P+](CCCCCC)(CCCCCC)CCCCCC.O=S(=O)([N-]S(=O)(=O)C(F)(F)F)C(F)(F)F | 0.417 ± 0.038
C#CCCC [1-pentyne] + CCCCCCCCCCCCCC[P+](CCCCCC)(CCCCCC)CCCCCC.O=S(=O)([N-]S(=O)(=O)C(F)(F)F)C(F)(F)F | 0.663 ± 0.051
C#CCCCCCC [1-octyne] + CCCCCCCCCCCCCC[P+](CCCCCC)(CCCCCC)CCCCCC.O=S(=O)([N-]S(=O)(=O)C(F)(F)F)C(F)(F)F | 0.886 ± 0.065
CC(C)=O [acetone] + CCCCCCCCCCCCCC[P+](CCCCCC)(CCCCCC)CCCCCC.O=S(=O)([N-]S(=O)(=O)C(F)(F)F)C(F)(F)F | 0.332 ± 0.034
C=CCCC [1-pentene] + CCCCCCCCCCCCCC[P+](CCCCCC)(CCCCCC)CCCCCC.O=S(=O)([N-]S(=O)(=O)C(F)(F)F)C(F)(F)F | 0.842 ± 0.062
C1CCCC1 [cyclopentane] + CCCCCCCCCCCCCC[P+](CCCCCC)(CCCCCC)CCCCCC.O=S(=O)([N-]S(=O)(=O)C(F)(F)F)C(F)(F)F | 0.713 ± 0.054
C#CCCCCC [1-heptyne] + CCCCCCCCCCCCCC[P+](CCCCCC)(CCCCCC)CCCCCC.O=S(=O)([N-]S(=O)(=O)C(F)(F)F)C(F)(F)F | 0.762 ± 0.057
C1CCCCC1 [cyclohexane] + CCCCCCCCCCCCCC[P+](CCCCCC)(CCCCCC)CCCCCC.O=S(=O)([N-]S(=O)(=O)C(F)(F)F)C(F)(F)F | 0.798 ± 0.059

Same assay, conditions: 373.15 K; 101 kPa; Liquid; Chromatography; x1 = 0

Structure (SMILES) | activity coefficient
C#CCCCCCCC [1-nonyne] + CCCCCCCCCCCCCC[P+](CCCCCC)(CCCCCC)CCCCCC.O=S(=O)([N-]S(=O)(=O)C(F)(F)F)C(F)(F)F | 0.979 ± 0.071
C=CCCCC [hex-1-ene] + CCCCCCCCCCCCCC[P+](CCCCCC)(CCCCCC)CCCCCC.O=S(=O)([N-]S(=O)(=O)C(F)(F)F)C(F)(F)F | 0.942 ± 0.068
CCCCCCCC [octane] + CCCCCCCCCCCCCC[P+](CCCCCC)(CCCCCC)CCCCCC.O=S(=O)([N-]S(=O)(=O)C(F)(F)F)C(F)(F)F | 1.49 ± 0.11
C1CCCCCC1 [cycloheptane] + CCCCCCCCCCCCCC[P+](CCCCCC)(CCCCCC)CCCCCC.O=S(=O)([N-]S(=O)(=O)C(F)(F)F)C(F)(F)F | 0.905 ± 0.066
CCCO [propan-1-ol] + CCCCCCCCCCCCCC[P+](CCCCCC)(CCCCCC)CCCCCC.O=S(=O)([N-]S(=O)(=O)C(F)(F)F)C(F)(F)F | 0.953 ± 0.069
Cc1ccccc1 [toluene] + CCCCCCCCCCCCCC[P+](CCCCCC)(CCCCCC)CCCCCC.O=S(=O)([N-]S(=O)(=O)C(F)(F)F)C(F)(F)F | 0.51 ± 0.042
CO [methanol] + CCCCCCCCCCCCCC[P+](CCCCCC)(CCCCCC)CCCCCC.O=S(=O)([N-]S(=O)(=O)C(F)(F)F)C(F)(F)F | 0.863 ± 0.063
CCCCCC [hexane] + CCCCCCCCCCCCCC[P+](CCCCCC)(CCCCCC)CCCCCC.O=S(=O)([N-]S(=O)(=O)C(F)(F)F)C(F)(F)F | 1.13 ± 0.083
C#CCCCC [1-hexyne] + CCCCCCCCCCCCCC[P+](CCCCCC)(CCCCCC)CCCCCC.O=S(=O)([N-]S(=O)(=O)C(F)(F)F)C(F)(F)F | 0.732 ± 0.055
C1CCCCCCC1 [cyclooctane] + CCCCCCCCCCCCCC[P+](CCCCCC)(CCCCCC)CCCCCC.O=S(=O)([N-]S(=O)(=O)C(F)(F)F)C(F)(F)F | 1.12 ± 0.082
CCC(C)=O [butanone] + CCCCCCCCCCCCCC[P+](CCCCCC)(CCCCCC)CCCCCC.O=S(=O)([N-]S(=O)(=O)C(F)(F)F)C(F)(F)F | 0.331 ± 0.034
C=CCCCCC [1-heptene] + CCCCCCCCCCCCCC[P+](CCCCCC)(CCCCCC)CCCCCC.O=S(=O)([N-]S(=O)(=O)C(F)(F)F)C(F)(F)F | 1.12 ± 0.082
CCCCCCCCC [nonane] + CCCCCCCCCCCCCC[P+](CCCCCC)(CCCCCC)CCCCCC.O=S(=O)([N-]S(=O)(=O)C(F)(F)F)C(F)(F)F | 1.87 ± 0.14
CCCCC [pentane] + CCCCCCCCCCCCCC[P+](CCCCCC)(CCCCCC)CCCCCC.O=S(=O)([N-]S(=O)(=O)C(F)(F)F)C(F)(F)F | 1 ± 0.072
c1ccccc1 [benzene] + CCCCCCCCCCCCCC[P+](CCCCCC)(CCCCCC)CCCCCC.O=S(=O)([N-]S(=O)(=O)C(F)(F)F)C(F)(F)F | 0.437 ± 0.039
C#CCCC [1-pentyne] + CCCCCCCCCCCCCC[P+](CCCCCC)(CCCCCC)CCCCCC.O=S(=O)([N-]S(=O)(=O)C(F)(F)F)C(F)(F)F | 0.699 ± 0.053
C#CCCCCCC [1-octyne] + CCCCCCCCCCCCCC[P+](CCCCCC)(CCCCCC)CCCCCC.O=S(=O)([N-]S(=O)(=O)C(F)(F)F)C(F)(F)F | 0.899 ± 0.066
CC(C)=O [acetone] + CCCCCCCCCCCCCC[P+](CCCCCC)(CCCCCC)CCCCCC.O=S(=O)([N-]S(=O)(=O)C(F)(F)F)C(F)(F)F | 0.334 ± 0.034
C=CCCC [1-pentene] + CCCCCCCCCCCCCC[P+](CCCCCC)(CCCCCC)CCCCCC.O=S(=O)([N-]S(=O)(=O)C(F)(F)F)C(F)(F)F | 0.85 ± 0.063
C1CCCC1 [cyclopentane] + CCCCCCCCCCCCCC[P+](CCCCCC)(CCCCCC)CCCCCC.O=S(=O)([N-]S(=O)(=O)C(F)(F)F)C(F)(F)F | 0.721 ± 0.055
C#CCCCCC [1-heptyne] + CCCCCCCCCCCCCC[P+](CCCCCC)(CCCCCC)CCCCCC.O=S(=O)([N-]S(=O)(=O)C(F)(F)F)C(F)(F)F | 0.782 ± 0.058
C1CCCCC1 [cyclohexane] + CCCCCCCCCCCCCC[P+](CCCCCC)(CCCCCC)CCCCCC.O=S(=O)([N-]S(=O)(=O)C(F)(F)F)C(F)(F)F | 0.8 ± 0.059
